Values joined by “and” are separate entries in the source; they are usually repeats but may differ in a detail not shown here. Identical values can stand only once.
Columns and labels:
Test in all cases: radiometric filter-binding kinase assay, Kinase HotSpot
Conditions in all cases: compound 0.5 µM; ATP 10 µM
CSNK2A2 (human) = CSNK2A2 (human) (UniProt P19784)
CSNK2A1 (human) = CSNK2A1 (human) (UniProt P68400)
PKN1 (human) = PKN1 (human) (UniProt Q16512)
FLT3 (human) = FLT3 (human) (UniProt P36888)
CDK2 CCNE1 (human) = CDK2 CCNE1 (human) (UniProt P24941+P24864)
Sequence of CDK2 CCNE1 (human) (P24864 whole entry, looked up, other chains not shown): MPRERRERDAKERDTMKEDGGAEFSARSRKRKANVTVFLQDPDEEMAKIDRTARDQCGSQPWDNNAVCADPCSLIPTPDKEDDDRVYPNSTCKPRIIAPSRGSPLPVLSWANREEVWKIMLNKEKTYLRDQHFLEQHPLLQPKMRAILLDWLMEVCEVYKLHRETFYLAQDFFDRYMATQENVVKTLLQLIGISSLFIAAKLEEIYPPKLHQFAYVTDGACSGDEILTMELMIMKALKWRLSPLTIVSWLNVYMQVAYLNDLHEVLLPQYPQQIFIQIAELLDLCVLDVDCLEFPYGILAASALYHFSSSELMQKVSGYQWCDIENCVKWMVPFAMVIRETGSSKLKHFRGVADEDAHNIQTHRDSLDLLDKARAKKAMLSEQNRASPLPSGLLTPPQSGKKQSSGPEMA

AURKC (human) = AURKC (human) (UniProt Q9UQB9)
DAPK1 (human) = DAPK1 (human) (UniProt P53355)
STK11 (human) = STK11 (human) (UniProt Q15831)
Sequence of STK11 (human) (Q15831 whole entry, looked up): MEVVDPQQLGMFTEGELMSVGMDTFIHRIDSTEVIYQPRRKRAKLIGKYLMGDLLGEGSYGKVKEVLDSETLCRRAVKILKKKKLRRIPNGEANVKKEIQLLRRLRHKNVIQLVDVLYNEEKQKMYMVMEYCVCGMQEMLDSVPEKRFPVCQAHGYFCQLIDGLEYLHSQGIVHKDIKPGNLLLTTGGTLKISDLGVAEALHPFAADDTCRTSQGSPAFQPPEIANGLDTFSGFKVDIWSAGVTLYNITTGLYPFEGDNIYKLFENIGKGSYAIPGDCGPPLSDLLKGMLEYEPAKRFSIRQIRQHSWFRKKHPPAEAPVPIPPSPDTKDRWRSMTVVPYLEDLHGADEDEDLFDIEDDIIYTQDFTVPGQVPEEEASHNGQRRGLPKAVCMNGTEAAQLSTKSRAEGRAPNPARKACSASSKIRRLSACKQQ

MYLK (human) = MYLK (human) (UniProt Q15746)
SIK2 (human) = SIK2 (human) (UniProt Q9H0K1)
DSTYK (human) = DSTYK (human) (UniProt Q6XUX3)
BLK (human) = BLK (human) (UniProt P51451)
GRK6 (human) = GRK6 (human) (UniProt P43250)
CDK9 CCNT1 (human) = CDK9 CCNT1 (human) (UniProt P50750+O60563)
NEK7 (human) = NEK7 (human) (UniProt Q8TDX7)
Sequence of NEK7 (human) (Q8TDX7 whole entry, looked up): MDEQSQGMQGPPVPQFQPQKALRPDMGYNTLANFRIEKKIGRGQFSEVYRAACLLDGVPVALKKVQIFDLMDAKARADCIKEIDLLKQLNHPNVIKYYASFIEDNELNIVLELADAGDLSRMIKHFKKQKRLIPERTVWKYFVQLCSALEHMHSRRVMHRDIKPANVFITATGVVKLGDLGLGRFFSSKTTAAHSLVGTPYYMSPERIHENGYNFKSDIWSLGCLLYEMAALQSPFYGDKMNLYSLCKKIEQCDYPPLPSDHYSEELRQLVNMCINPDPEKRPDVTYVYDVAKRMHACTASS

IRAK1 (human) = IRAK1 (human) (UniProt P51617)
Sequence of IRAK1 (human) (P51617 whole entry, looked up): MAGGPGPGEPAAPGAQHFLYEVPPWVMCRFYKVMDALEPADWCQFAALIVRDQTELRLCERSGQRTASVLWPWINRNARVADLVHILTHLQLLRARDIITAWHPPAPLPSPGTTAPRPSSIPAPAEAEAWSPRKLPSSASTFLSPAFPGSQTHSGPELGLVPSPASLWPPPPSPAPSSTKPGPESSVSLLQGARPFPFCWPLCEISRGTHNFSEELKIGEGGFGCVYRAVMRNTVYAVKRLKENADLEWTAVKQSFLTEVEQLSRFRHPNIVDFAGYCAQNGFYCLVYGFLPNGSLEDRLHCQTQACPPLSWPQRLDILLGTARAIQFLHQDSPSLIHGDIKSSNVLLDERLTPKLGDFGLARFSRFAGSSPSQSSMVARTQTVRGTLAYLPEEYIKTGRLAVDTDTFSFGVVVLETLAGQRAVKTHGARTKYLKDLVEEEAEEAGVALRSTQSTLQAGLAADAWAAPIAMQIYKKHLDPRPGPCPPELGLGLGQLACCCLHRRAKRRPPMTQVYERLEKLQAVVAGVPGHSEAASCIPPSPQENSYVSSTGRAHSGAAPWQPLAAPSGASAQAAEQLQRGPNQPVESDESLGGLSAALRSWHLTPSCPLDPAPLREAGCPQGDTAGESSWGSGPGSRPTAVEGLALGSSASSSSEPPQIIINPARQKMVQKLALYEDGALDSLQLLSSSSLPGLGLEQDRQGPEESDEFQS

ABL1 (human) = ABL1 (human) (UniProt P00519)
EPHA1 (human) = EPHA1 (human) (UniProt P21709)
FGFR1 (human) = FGFR1 (human) (UniProt P11362)
IKBKB (human) = IKBKB (human) (UniProt O14920)
CDK4 CCND3 (human) = CDK4 CCND3 (human) (UniProt P30281+P11802)
TGFBR1 (human) = TGFBR1 (human) (UniProt P36897)
Sequence of TGFBR1 (human) (P36897 whole entry, looked up): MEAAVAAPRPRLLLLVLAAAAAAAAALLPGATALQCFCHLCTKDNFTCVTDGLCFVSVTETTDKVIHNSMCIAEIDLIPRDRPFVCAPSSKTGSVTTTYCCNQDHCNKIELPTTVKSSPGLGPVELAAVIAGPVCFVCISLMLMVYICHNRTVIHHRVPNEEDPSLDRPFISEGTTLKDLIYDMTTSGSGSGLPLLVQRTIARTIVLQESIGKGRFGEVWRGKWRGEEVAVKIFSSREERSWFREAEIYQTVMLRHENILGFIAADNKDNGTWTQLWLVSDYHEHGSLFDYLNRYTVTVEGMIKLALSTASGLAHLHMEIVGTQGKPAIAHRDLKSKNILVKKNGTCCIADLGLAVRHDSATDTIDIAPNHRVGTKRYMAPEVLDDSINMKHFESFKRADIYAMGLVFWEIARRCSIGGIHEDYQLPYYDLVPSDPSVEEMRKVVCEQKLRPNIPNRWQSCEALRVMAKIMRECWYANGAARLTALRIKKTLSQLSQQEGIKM

RPS6KA4 KD2 (human) = RPS6KA4 KD2 (human) (UniProt O75676)
LYN (human) = LYN (human) (UniProt P07948)
EPHA2 (human) = EPHA2 (human) (UniProt P29317)
Sequence of EPHA2 (human) (P29317 whole entry, looked up): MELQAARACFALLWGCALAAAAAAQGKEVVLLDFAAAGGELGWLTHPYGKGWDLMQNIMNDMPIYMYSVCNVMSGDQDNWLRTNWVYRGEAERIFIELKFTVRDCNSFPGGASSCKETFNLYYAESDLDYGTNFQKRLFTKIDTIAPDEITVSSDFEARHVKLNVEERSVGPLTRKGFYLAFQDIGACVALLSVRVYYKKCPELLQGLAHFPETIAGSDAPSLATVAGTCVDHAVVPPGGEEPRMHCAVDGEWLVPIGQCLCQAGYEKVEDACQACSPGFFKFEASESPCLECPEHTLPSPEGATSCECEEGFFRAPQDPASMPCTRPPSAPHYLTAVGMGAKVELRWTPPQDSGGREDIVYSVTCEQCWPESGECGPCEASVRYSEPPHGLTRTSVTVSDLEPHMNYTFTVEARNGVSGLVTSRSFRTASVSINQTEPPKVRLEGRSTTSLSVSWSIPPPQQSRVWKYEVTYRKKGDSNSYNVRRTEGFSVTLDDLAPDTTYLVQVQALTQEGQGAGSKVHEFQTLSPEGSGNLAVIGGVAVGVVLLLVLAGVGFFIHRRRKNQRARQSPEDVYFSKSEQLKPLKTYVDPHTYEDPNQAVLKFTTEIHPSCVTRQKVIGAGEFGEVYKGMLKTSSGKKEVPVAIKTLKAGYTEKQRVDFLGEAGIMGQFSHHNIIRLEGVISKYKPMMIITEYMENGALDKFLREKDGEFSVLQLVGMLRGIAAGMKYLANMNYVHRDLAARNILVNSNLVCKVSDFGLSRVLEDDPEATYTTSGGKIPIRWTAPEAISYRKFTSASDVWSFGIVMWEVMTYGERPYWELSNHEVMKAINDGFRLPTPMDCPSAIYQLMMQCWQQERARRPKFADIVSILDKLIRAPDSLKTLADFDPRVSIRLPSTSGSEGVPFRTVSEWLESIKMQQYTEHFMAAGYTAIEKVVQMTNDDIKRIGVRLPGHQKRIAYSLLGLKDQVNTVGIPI

TGFBR2 (human) = TGFBR2 (human) (UniProt P37173)
MAPK9 (human) = MAPK9 (human) (UniProt P45984)
LTK (human) = LTK (human) (UniProt P29376)
NEK6 (human) = NEK6 (human) (UniProt Q9HC98)
DYRK4 (human) = DYRK4 (human) (UniProt Q9NR20)
GRK7 (human) = GRK7 (human) (UniProt Q8WTQ7)
PRKD3 (human) = PRKD3 (human) (UniProt O94806)
STK24 (human) = STK24 (human) (UniProt Q9Y6E0)
Sequence of STK24 (human) (Q9Y6E0 whole entry, looked up): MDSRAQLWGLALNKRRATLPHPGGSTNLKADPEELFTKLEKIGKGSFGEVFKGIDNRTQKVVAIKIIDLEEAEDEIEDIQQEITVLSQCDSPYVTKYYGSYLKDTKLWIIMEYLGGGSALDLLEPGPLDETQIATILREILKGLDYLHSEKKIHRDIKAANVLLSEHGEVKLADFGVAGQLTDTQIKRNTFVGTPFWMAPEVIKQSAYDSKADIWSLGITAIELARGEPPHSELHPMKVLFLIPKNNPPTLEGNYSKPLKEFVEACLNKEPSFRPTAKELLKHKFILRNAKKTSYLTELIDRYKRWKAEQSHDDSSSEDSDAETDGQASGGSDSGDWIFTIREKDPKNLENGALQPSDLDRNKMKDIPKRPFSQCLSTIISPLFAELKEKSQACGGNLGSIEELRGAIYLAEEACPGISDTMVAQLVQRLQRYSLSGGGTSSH

KIT (human) = KIT (human) (UniProt P10721)
BTK (human) = BTK (human) (UniProt Q06187)
MAP4K2 (human) = MAP4K2 (human) (UniProt Q12851)
ROCK2 (human) = ROCK2 (human) (UniProt O75116)
MAP4K5 (human) = MAP4K5 (human) (UniProt Q9Y4K4)
Sequence of MAP4K5 (human) (Q9Y4K4 whole entry, looked up): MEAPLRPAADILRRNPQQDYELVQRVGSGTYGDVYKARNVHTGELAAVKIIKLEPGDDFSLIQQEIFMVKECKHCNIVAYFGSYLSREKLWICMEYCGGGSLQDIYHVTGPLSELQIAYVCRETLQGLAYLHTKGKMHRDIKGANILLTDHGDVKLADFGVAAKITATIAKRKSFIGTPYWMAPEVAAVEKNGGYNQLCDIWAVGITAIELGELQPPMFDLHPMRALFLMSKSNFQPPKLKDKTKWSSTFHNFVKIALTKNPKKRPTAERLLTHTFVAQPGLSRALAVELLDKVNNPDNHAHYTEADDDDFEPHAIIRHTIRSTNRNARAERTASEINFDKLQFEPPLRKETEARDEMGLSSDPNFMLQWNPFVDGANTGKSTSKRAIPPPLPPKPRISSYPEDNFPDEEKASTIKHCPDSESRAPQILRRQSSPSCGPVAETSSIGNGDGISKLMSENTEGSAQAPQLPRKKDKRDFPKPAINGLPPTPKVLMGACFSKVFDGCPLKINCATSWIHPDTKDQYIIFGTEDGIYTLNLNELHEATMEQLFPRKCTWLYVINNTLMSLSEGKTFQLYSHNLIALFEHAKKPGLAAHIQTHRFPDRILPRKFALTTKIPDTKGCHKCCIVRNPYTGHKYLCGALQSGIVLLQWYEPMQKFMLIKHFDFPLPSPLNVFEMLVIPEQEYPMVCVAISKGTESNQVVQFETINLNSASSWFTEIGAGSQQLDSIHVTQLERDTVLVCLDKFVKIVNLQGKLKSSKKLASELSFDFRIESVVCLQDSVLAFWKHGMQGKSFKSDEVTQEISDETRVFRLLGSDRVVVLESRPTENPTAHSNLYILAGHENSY

TYRO3 (human) = TYRO3 (human) (UniProt Q06418)
BMX (human) = BMX (human) (UniProt P51813)
PNCK (human) = PNCK (human) (UniProt Q6P2M8)
MAP3K7 TAB1 (human) = MAP3K7 TAB1 (human) (UniProt O43318+Q15750)

Sequence of CSNK2A2 (human) (P19784 whole entry, looked up): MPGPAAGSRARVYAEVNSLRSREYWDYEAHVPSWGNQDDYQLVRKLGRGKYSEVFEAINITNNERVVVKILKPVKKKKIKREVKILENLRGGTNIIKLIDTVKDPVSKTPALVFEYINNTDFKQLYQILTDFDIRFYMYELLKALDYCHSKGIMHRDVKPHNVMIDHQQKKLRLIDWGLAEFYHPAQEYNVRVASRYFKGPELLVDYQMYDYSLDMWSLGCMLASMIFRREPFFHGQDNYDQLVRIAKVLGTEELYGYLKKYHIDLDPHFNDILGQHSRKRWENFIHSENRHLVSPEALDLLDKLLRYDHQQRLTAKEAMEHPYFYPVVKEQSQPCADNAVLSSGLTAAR

Compound: O=C1Nc2ccccc2/C1=C1\Nc2ccccc2\C1=N/O
- residual activity (CSNK2A2 (human)): 75%
- residual activity (CSNK2A1 (human)): 78.2%
- residual activity (PKN1 (human)): 87.5%
- residual activity (FLT3 (human)): 2.16%
- residual activity (CDK2 CCNE1 (human)): 31.3%
- residual activity (AURKC (human)): 56.4%
- residual activity (DAPK1 (human)): 83.2%
- residual activity (STK11 (human)): 25.6%
- residual activity (MYLK (human)): 65%
- residual activity (SIK2 (human)): 89.8%
- residual activity (DSTYK (human)): 108%
- residual activity (BLK (human)): 75.1%
- residual activity (GRK6 (human)): 89.4%
- residual activity (CDK9 CCNT1 (human)): 75.2%
- residual activity (NEK7 (human)): 106%
- residual activity (IRAK1 (human)): 68.8%
- residual activity (ABL1 (human)): 82.5%
- residual activity (EPHA1 (human)): 99.4%
- residual activity (FGFR1 (human)): 52.2%
- residual activity (IKBKB (human)): 96.1%
- residual activity (CDK4 CCND3 (human)): 98.9%
- residual activity (TGFBR1 (human)): 98.9%
- residual activity (RPS6KA4 KD2 (human)): 58.7%
- residual activity (LYN (human)): 64.6% and 79.6%
- residual activity (EPHA2 (human)): 84.3%
- residual activity (TGFBR2 (human)): 113%
- residual activity (MAPK9 (human)): 65.6%
- residual activity (LTK (human)): 62.3%
- residual activity (NEK6 (human)): 92.2%
- residual activity (DYRK4 (human)): 96.8%
- residual activity (GRK7 (human)): 84.4%
- residual activity (PRKD3 (human)): 88.4%
- residual activity (STK24 (human)): 62.6%
- residual activity (KIT (human)): 73.2%
- residual activity (BTK (human)): 59.3%
- residual activity (MAP4K2 (human)): 57.3%
- residual activity (ROCK2 (human)): 98.5%
- residual activity (MAP4K5 (human)): 37.8%
- residual activity (TYRO3 (human)): 79.6%
- residual activity (BMX (human)): 80.1%
- residual activity (PNCK (human)): 106%

Compound: Nc1nnc2[nH]c3ccccc3nc1-2
- residual activity (CSNK2A2 (human)): 94%
- residual activity (CSNK2A1 (human)): 87.6%
- residual activity (PKN1 (human)): 92%
- residual activity (FLT3 (human)): 75.9%
- residual activity (CDK2 CCNE1 (human)): 85.5%
- residual activity (AURKC (human)): 90.8%
- residual activity (DAPK1 (human)): 91.5%
- residual activity (STK11 (human)): 85.7%
- residual activity (MYLK (human)): 93.6%
- residual activity (SIK2 (human)): 102%
- residual activity (DSTYK (human)): 96%
- residual activity (BLK (human)): 96.6%
- residual activity (GRK6 (human)): 104%
- residual activity (CDK9 CCNT1 (human)): 81.6%
- residual activity (NEK7 (human)): 93.1%
- residual activity (IRAK1 (human)): 88.9%
- residual activity (ABL1 (human)): 91.6%
- residual activity (EPHA1 (human)): 100%
- residual activity (FGFR1 (human)): 93.9%
- residual activity (IKBKB (human)): 102%
- residual activity (CDK4 CCND3 (human)): 94.8%
- residual activity (TGFBR1 (human)): 98.1%
- residual activity (RPS6KA4 KD2 (human)): 79%
- residual activity (LYN (human)): 108% and 97%
- residual activity (EPHA2 (human)): 98.5%
- residual activity (TGFBR2 (human)): 82.4%
- residual activity (MAPK9 (human)): 103%
- residual activity (LTK (human)): 89.4%
- residual activity (NEK6 (human)): 95.5%
- residual activity (MAP3K7 TAB1 (human)): 100%
- residual activity (DYRK4 (human)): 89.2%
- residual activity (PRKD3 (human)): 87.3%
- residual activity (STK24 (human)): 89.1%
- residual activity (KIT (human)): 100%
- residual activity (BTK (human)): 93.9%
- residual activity (MAP4K2 (human)): 91.7%
- residual activity (ROCK2 (human)): 93.3%
- residual activity (MAP4K5 (human)): 96.8%
- residual activity (TYRO3 (human)): 101%
- residual activity (BMX (human)): 99.5%
- residual activity (PNCK (human)): 102%

Compound: COc1cc2ncc(-c3ccccc3)nc2cc1OC
- residual activity (CSNK2A2 (human)): 98.3%
- residual activity (PKN1 (human)): 104%
- residual activity (FLT3 (human)): 65.9%
- residual activity (CDK2 CCNE1 (human)): 85.4%
- residual activity (AURKC (human)): 90.1%
- residual activity (DAPK1 (human)): 99.7%
- residual activity (STK11 (human)): 86.8%
- residual activity (MYLK (human)): 97.4%
- residual activity (SIK2 (human)): 93.1%
- residual activity (DSTYK (human)): 82.7%
- residual activity (BLK (human)): 103%
- residual activity (GRK6 (human)): 92.8%
- residual activity (CDK9 CCNT1 (human)): 83.2%
- residual activity (NEK7 (human)): 102%
- residual activity (IRAK1 (human)): 98.4%
- residual activity (ABL1 (human)): 94.1%
- residual activity (EPHA1 (human)): 95.8%
- residual activity (FGFR1 (human)): 92.9%
- residual activity (IKBKB (human)): 101%
- residual activity (CDK4 CCND3 (human)): 97.5%
- residual activity (TGFBR1 (human)): 101%
- residual activity (RPS6KA4 KD2 (human)): 85.4%
- residual activity (LYN (human)): 90.4% and 96.9%
- residual activity (EPHA2 (human)): 102%
- residual activity (TGFBR2 (human)): 75%
- residual activity (MAPK9 (human)): 93.1%
- residual activity (LTK (human)): 97.9%
- residual activity (NEK6 (human)): 93.8%
- residual activity (MAP3K7 TAB1 (human)): 92.8%
- residual activity (DYRK4 (human)): 112%
- residual activity (GRK7 (human)): 105%
- residual activity (PRKD3 (human)): 91.1%
- residual activity (STK24 (human)): 104%
- residual activity (KIT (human)): 67.3%
- residual activity (BTK (human)): 98%
- residual activity (MAP4K2 (human)): 99.2%
- residual activity (ROCK2 (human)): 96.1%
- residual activity (MAP4K5 (human)): 99.8%
- residual activity (TYRO3 (human)): 100%
- residual activity (BMX (human)): 92.2%
- residual activity (PNCK (human)): 98.2%

Reference: the kinase profiling compilation of Christmann-Franck et al. (2016)
